Reference: PMC5069765, “OsdR of Streptomyces coelicolor and the Dormancy Regulator DevR of Mycobacterium tuberculosis Control Overlapping Regulons” (mSystems, 2016)

Columns and labels:
OsdR (SCO0204) = biological target: T1, OsdR (SCO0204) (Streptomyces coelicolor, UniProt Q9RI42); assay: in vitro phosphorylation by AcP, read out by EMSA (DNA binding versus nonphosphorylated OsdR); format: biochemical; details: phosphor donor; covalent phosphorylation; indirect read-out
T1 construct: His6-tagged, from plasmid pET0204 in E. coli BL21(DE3), Ni-NTA purified
T1 sequence (Q9RI42 1-233): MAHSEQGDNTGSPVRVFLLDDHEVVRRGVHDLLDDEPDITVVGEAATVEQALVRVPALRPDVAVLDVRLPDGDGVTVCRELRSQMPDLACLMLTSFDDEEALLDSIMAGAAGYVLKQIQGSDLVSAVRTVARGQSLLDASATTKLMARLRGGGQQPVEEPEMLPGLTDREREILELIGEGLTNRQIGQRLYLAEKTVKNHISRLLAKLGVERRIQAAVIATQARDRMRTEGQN

[1] = biological target: T2, OsdR~P (phosphorylated with acetyl phosphate) (Streptomyces coelicolor) (UniProt Q9RI42); assay: EMSA; details: AcP-phosphorylated; EMSA with 32P-labeled probes, 20 fmol DNA (50-mers), uM OsdR; AcP phosphorylation; buffer, pH, temperature not given (cited method)
T2 sequence: T1 sequence (Q9RI42 1-233)

In the case of `CC(=O)OP(=O)(O)O` [acetyl phosphate], the “in vitro phosphorylation by AcP, read out by EMSA (DNA binding versus nonphospho)” value (OsdR (SCO0204)) is reported as “OsdR~P was obtained after AcP phosphorylation in vitro”.

SCO2637 promoter was tested, and the binding signal (fold lower affinity than other targets) [1] was 2.
